These results are taken from ChEMBL document CHEMBL4739714, “Inhibitors of cyclin-dependent kinase 12 (cdk12) and uses thereof” (2020).

Molecules are shown by their SMILES. Active and inactive are the calls of the source. No cut-off for these calls is given here.

Common to all, as to assay type: cell-based
The target in assay [1] is Cyclin-dependent kinase 12 (Homo sapiens) (UniProt Q9NYV4). Briefly: Inhibition of biotinylated-THZ1 binding to CDK12 in human Jurkat cells assessed as reduction in cyclin K pull down at 1 uM preincubated for 6 hrs followed by biotinylated-THZ1 addition by Western blotting based pull-down assay. (A western blot detects proteins with antibodies after separation by electrophoresis.)

The target of assay [2] is Cyclin-dependent kinase 12/13 (Homo sapiens) (UniProt Q14004+Q9NYV4). The assay is described as follows: Inhibition of biotinylated-THZ1 binding to CDK12/CDK13 in human Jurkat cells assessed as reduction in cyclin K pull down at 1 uM preincubated for 6 hrs followed by biotinylated-THZ1 addition by Western blotting based pull-down assay.
Assay [3] deals with Cyclin-dependent kinase 7 (Homo sapiens) (UniProt P50613). Briefly: Inhibition of biotinylated-THZ1 binding to CDK7 in human Jurkat cells assessed as reduction in cyclin H pull down at 1 uM preincubated for 6 hrs followed by biotinylated-THZ1 addition by Western blotting based pull-down assay.
Cyclin-dependent kinase 7 (Homo sapiens), sequence (P50613 whole entry): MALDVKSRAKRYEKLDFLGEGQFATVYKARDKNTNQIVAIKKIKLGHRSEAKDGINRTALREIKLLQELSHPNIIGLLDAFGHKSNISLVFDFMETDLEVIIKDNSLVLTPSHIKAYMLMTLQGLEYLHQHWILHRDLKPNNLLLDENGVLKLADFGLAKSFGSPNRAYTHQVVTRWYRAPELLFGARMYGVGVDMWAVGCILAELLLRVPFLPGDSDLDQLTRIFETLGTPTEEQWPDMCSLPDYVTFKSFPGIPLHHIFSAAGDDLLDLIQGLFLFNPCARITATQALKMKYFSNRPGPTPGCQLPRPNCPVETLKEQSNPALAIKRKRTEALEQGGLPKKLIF

Cyclin-dependent kinase 12 (Homo sapiens), sequence (Q9NYV4 whole entry, looked up): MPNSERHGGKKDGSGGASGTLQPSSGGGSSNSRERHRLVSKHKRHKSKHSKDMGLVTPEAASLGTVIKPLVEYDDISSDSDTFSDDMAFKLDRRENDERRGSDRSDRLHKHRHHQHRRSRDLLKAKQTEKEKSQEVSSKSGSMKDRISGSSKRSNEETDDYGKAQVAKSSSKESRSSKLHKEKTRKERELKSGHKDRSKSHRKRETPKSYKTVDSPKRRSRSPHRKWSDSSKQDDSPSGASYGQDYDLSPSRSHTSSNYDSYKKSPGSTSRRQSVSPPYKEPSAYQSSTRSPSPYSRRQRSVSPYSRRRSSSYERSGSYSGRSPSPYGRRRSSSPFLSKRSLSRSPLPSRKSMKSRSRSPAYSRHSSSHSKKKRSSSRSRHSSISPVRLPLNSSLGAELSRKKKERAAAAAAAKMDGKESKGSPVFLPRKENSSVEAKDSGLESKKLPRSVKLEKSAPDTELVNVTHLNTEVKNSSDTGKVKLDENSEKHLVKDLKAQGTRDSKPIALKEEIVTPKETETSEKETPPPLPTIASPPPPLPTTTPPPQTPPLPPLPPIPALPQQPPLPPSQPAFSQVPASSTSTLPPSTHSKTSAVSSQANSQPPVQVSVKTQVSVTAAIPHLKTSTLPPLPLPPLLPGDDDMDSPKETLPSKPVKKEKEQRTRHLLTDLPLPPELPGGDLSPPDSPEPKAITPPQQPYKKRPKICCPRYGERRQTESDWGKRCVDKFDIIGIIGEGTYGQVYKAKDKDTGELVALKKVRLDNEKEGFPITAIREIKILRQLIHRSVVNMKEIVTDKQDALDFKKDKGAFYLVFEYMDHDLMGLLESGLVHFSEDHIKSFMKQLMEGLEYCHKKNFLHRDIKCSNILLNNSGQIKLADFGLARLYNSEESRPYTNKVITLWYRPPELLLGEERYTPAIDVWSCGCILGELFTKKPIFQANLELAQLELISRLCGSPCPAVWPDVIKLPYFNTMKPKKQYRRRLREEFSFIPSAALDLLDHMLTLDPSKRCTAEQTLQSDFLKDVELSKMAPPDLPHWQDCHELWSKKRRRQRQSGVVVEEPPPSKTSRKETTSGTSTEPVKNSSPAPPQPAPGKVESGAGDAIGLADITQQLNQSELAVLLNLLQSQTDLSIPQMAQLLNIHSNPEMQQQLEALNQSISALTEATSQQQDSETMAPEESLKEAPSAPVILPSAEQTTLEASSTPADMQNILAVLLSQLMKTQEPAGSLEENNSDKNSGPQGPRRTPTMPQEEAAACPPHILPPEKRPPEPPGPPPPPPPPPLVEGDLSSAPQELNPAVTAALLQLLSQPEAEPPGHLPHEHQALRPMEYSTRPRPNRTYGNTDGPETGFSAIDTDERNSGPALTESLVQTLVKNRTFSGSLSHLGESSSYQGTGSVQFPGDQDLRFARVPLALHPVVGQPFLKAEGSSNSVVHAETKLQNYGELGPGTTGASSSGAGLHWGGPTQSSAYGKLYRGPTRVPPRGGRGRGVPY

Take `CN(C)C/C=C/C(=O)Nc1ccc(C(=O)N2CCC[C@@H](Nc3ncc(Cl)c(-c4c[nH]c5ccccc45)n3)C2)nc1`: the inhibition result in assay [1] is “inactive”.

Take `CN(C)C/C=C/C(=O)Nc1ccc(O[C@@H]2CCC[C@@H](Nc3ncc(Cl)c(-c4c[nH]c5ccccc45)n3)C2)cc1`: the inhibition result in assay [2] is “Active”. For the same compound, the inhibition entry in assay [3] and in assay [1] was “inactive” throughout.

As to `CN(C)C/C=C/C(=O)Nc1ccc(N2CCC[C@@H](Nc3ncc(Cl)c(-c4c[nH]c5ccccc45)n3)C2)nc1`, the inhibition entry in assay [3] and in assay [1] was “inactive” each time.

On to `C=CC(=O)Nc1ccc(O[C@@H]2CCC[C@@H](Nc3ncc(Cl)c(-c4c[nH]c5ccccc45)n3)C2)cc1`, for which the inhibition entry in assay [1] is “inactive”.

As for `C=CC(=O)Nc1ccc(N2CCC[C@@H](Nc3ncc(Cl)c(-c4c[nH]c5ccccc45)n3)C2)cc1`, the inhibition result in assay [3] and in assay [1] was “inactive” throughout.

Regarding `CN(C)C/C=C/C(=O)Nc1ccc(C(=O)Nc2cccc(Nc3ncc(Cl)c(-c4c[nH]c5ccccc45)n3)c2)cc1`, the inhibition result in assay [2] and in assay [3] was “Active” throughout.

`C=CC(=O)Nc1ccc(N2CCC[C@@H](Nc3ncc(Cl)c(-c4c[nH]c5ccccc45)n3)C2)nc1`: the inhibition entry in assay [1] was “inactive”.
